# Results published in patent US20260083751A1, “ALLOSTERIC MODULATORS OF ANDROGEN RECEPTOR COACTIVATOR RECRUITMENT FOR CRPC THERAPY” (University of Pittsburgh – Of the Commonwealth System of …, priority 2022, published 2026).
# Entries after “also recorded” stand apart in the source; their conditions may differ.
# What was measured:
# LNCaP cells = test: Prostate cancer cell line growth inhibition assay, LNCaP; type: cell-based; conditions: Homo sapiens, 72 h, read-out: AR positive LnCaP GI50
# Method: Prostate Cancer Cell Line Growth Inhibition Assays: The PC-3, DU-145, LNCaP, C4-2, and 22Rv1 PC cell line growth inhibition assays have been described previously (Fancher et al., Assay Drug Dev Technol. 2016, 14:453-477; Fancher et al., Assay Drug Dev Technol. 2019, 17:364-386). On day 1, each PC cell line was harvested, counted, and seeded into two 384-well assay plates, a time zero (T0) and a time 72 h (T72) plate. PC cell lines were all seeded at 1,000 cells per well in 45 μL of tissue culture media in uncoated white clear bottom 384-well assay plates (VWR, #82050-076) using a Matrix electronic multichannel pipette (Thermo Fisher Scientific, Waltham, MA) and cultured overnight at 37° C., 5% CO2, and 95% humidity. On day 2, 25 μL of the CellTiter-Glo® (CTG) (Promega Corporation, Madison, WI) detection reagent was dispensed into the wells of the TO assay plate using a Matrix electronic multichannel pipette, and the RLUs were captured on the SpectraMax® M5e (Molecular Devices LLC, Sunnyvale, CA) microtiter plate reader. Also on day 2, 5 μL of compounds were transferred into the test wells of the T72 384-well assay plates which were returned to the incubator for 72 h. Control wells received DMSO alone. On day 5, 25 μL of the CTG detection reagent was dispensed into the wells of the T72 assay plate using a Matrix electronic multichannel pipette, and the RLU's were captured on the SpectraMax® M5e microtiter plate reader platform.
# For the 96-well AR-LBD H^3-DHT radioligand binding assay, eight minimum and maximum plate control wells were utilized to normalize the data. […] To normalize the 72 h compound exposure PC growth inhibition data, the signals from the compound treated wells were processed and expressed as % of the T72 DMSO plate controls. IC50 and GI50 values for each of the bioassays were calculated using GraphPad Prism 9 software to plot and fit data to curves using the Sigmoidal dose response variable slope equation Y=Bottom+[Top-Bottom]/[1+10^(Log EC50−X)*HillSlope].
# [1] = test system: PSA expression in C4-2 cells; test: Western blot of PSA expression in C4-2 cells; type: cell-based; conditions: C4-2 cells, hits 20 μM (enzalutamide 25 μM) 3 h, ±10 nM DHT 24 h
# Method: Cell lysate protein concentrations were determined in a bicinchoninic acid (BCA) assay. Equal amounts of cell protein were mixed with SDS-PAGE sample buffer and placed in a heat block at 100° C. for 5 min. The protein constituents of C4-2 cells were separated by SDS-PAGE on 10% separating gels, transferred to nitrocellulose membranes and western blots were probed overnight at 4° C. with a 1:1000 dilution of a rabbit anti-hPSA (Cell Signaling, Danvers, MA) primary antibody in Tris-buffered saline (TBS) Tween 20 (TBST) containing 5% non-fat milk. Membranes were washed 3× in TBST for 10 min, then incubated for 1 h at room temperature with a 1:10,000 dilution of the goat anti-rabbit IgG horse radish peroxidase (HRP) conjugated secondary antibody (Invitrogen, Carlsbad, CA) in TBST containing 5% non-fat milk. Western blots were then washed 3× in TBST and developed with Pierce enhanced chemiluminescence (ECL) western blotting substrate (Thermo Fisher Scientific, Waltham, MA). Images of western blot ECL bands were acquired on an iBright™ 1500 imaging system (Thermo Fisher Scientific, Waltham, MA) and quantified by iBright™ image analysis software.
GI50 (LNCaP cells) [µM],SMILES,Endogenous and DHT-enhanced PSA expression [1]
6.35,Cc1c(-c2ccccc2F)[nH]c2ccc(CNC(=O)CCc3cn[nH]c3)cc12 [Compound S3-11],substantially reduced; also recorded: inhibition
24.4,Cc1ccccc1-c1cc(O)c2c(c1)CN(c1nc(C(N)=O)cs1)CCO2 [Compound S1-1],substantially reduced; also recorded: inhibition
15.6,Cc1nsc(NC(=O)N2CCC(Sc3ccccc3C)CC2)n1 [Compound S2-6],substantially reduced; also recorded: inhibition
